From patent US10947242B2, “[1,2,4]triazolo[1,5and#8208;A]pyrimidine compounds as PDE2 inhibitors” (Janssen Pharmaceutica NV, priority 2016, dated 2021)
Where two headings read alike, the source gives them in different places.

Assays:
[1] = biological target: T1, Human recombinant PDE3A (hPDE3A) (Homo sapiens, UniProt Q14432); assay: In vitro assay PDE3A (SPA, 3H-cAMP hydrolysis); assay type: biochemical; conditions: for IC50: hPDE3B pIC50; for Emax: read-out: hPDE3B Emax, read-out: Emax;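 on Emax: the method names PDE3A and the table heading PDE3B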
T1 construct: purchased Scottish Biomedical; host or cells: Sf9 insect cells
Procedure, shortened: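 Radiometric SPA measuring [3H]-cAMP hydrolysis (0.4 μM cAMP, 2.4 μCi/ml) over 60 min at room temperature, in Tris pH 7.8 buffer with MgCl2 and EGTA, 1% DMSO. Enzyme: recombinant human brain PDE3A expressed in Sf9 cells, used as partially purified lysate. Counts compared with enzyme-free blanks and vehicle controls.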

[2] = biological target: T2, Human recombinant PDE10A (hPDE10A) (Homo sapiens, UniProt Q9Y233); assay: In vitro assay PDE10A, human clone (SPA, 3H-cAMP hydrolysis); assay type: biochemical
T2 construct: His tag (inferred from metal chelate purification); made in house; host or cells: Sf9 insect cells (baculovirus)
Procedure, shortened: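 Hydrolysis of 3H-cAMP (60 nM cAMP, 0.008 μCi tracer) proceeded for 60 min at room temperature, with the product detected by SPA bead scintillation counting. The enzyme was hPDE10A from baculovirus-infected Sf9 cells in Tris pH 7.8 buffer with MgCl2 and EGTA, and compounds were at 1% DMSO final. Blanks lacked enzyme.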

[3] = biological target: T3, PDE2A (Rattus norvegicus, UniProt Q01062); assay: PDE2 occupancy by test compounds, ex-vivo autoradiography with [3H]B-17a; assay type: in vivo, Male Wistar rats; conditions: for receptor occupancy at 10 mg/kg / PDE2 Occupancy at 10 mg/kg: percentage receptor occupancy, ex-vivo autoradiography, striatum
T3 construct: Twenty μm-thick striatal sections were cut; from tissue; host or cells: rat brain, striatal sections
T3 sequence (Q01062 1-928): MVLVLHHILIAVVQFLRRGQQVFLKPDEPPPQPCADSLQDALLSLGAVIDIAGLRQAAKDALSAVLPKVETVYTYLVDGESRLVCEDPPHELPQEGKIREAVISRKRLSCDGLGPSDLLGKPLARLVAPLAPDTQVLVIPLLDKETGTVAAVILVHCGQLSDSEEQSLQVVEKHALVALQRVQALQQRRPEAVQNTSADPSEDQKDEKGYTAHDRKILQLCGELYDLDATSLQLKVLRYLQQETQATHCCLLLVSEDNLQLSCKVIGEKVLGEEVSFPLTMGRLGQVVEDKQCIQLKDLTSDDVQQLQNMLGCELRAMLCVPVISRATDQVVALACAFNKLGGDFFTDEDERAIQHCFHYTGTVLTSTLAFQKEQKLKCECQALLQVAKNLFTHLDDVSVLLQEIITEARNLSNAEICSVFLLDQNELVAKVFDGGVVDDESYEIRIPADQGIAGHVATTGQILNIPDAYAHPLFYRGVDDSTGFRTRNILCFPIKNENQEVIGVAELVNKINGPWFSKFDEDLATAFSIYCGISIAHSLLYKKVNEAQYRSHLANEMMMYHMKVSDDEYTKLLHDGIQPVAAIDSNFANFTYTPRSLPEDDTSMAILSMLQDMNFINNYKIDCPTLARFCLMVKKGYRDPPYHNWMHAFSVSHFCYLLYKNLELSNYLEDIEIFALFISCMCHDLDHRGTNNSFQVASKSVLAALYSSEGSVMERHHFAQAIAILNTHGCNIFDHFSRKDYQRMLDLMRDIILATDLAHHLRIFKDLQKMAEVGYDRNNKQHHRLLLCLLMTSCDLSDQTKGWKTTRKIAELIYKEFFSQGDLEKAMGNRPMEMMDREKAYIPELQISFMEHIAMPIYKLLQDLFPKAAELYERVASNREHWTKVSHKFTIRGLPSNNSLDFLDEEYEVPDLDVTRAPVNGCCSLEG

[4] = biological target: T4, Human recombinant PDE2A (hPDE2A) (Homo sapiens, UniProt O00408); assay: In vitro assay PDE2A (SPA, 3H-cGMP hydrolysis); assay type: biochemical; conditions: for Emax: read-out: hPDE2A Emax
T4 construct: His tag (inferred from metal chelate purification); made in house; host or cells: Sf9 insect cells (baculovirus)

[5] = human clone (h), default, read-out: hPDE10A2 Emax
[6] = human clone (h), default, read-out: hPDE10A2 pIC50 (converted)
[7] = human recombinant PDE2A, 10 μM cGMP substrate, read-out: hPDE2A pIC50 (converted)
[8] = read-out: hPDE2A pIC50 (converted)
[9] = hPDE2A pIC50, human recombinant PDE2A, 10 μM cGMP substrate
[10] = human recombinant PDE2A, 10 μM cGMP substrate
[11] = human clone by default (no (r) mark), read-out: hPDE10A2 or rPDE10A2 Emax
[12] = human clone by default (no (r) mark), read-out: hPDE10A2 or rPDE10A2 pIC50 (converted)

T1 sequence (Q14432 whole entry): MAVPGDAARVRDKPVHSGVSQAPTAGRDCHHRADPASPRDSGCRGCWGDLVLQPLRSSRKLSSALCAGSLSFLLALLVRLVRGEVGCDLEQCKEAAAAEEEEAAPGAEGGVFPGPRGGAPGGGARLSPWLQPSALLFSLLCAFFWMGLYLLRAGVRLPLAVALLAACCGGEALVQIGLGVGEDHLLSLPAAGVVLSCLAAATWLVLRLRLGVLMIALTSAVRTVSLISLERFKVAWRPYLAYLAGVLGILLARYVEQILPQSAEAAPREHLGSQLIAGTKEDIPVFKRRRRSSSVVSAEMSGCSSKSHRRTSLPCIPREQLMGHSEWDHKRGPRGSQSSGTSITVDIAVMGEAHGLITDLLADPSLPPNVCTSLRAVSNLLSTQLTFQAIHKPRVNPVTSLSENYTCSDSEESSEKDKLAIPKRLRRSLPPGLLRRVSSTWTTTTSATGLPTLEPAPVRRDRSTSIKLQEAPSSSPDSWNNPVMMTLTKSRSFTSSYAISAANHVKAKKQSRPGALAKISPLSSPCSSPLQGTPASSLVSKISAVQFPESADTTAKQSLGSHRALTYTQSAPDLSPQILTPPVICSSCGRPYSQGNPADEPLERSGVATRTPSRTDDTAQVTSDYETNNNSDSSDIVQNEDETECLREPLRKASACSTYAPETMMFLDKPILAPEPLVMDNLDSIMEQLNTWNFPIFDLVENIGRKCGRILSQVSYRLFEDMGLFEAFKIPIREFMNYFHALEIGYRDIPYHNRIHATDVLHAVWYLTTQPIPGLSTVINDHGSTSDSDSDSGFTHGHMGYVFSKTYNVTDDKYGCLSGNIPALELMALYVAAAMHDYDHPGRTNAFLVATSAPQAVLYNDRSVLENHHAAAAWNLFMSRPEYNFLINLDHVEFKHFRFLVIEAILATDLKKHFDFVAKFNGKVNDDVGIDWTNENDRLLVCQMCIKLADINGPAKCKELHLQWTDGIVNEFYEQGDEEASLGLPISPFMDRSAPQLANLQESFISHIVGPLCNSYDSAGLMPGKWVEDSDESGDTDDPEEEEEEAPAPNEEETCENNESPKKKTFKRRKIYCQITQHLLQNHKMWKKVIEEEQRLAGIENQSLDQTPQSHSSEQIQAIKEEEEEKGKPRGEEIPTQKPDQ
T2 sequence (Q9Y233 267-1055): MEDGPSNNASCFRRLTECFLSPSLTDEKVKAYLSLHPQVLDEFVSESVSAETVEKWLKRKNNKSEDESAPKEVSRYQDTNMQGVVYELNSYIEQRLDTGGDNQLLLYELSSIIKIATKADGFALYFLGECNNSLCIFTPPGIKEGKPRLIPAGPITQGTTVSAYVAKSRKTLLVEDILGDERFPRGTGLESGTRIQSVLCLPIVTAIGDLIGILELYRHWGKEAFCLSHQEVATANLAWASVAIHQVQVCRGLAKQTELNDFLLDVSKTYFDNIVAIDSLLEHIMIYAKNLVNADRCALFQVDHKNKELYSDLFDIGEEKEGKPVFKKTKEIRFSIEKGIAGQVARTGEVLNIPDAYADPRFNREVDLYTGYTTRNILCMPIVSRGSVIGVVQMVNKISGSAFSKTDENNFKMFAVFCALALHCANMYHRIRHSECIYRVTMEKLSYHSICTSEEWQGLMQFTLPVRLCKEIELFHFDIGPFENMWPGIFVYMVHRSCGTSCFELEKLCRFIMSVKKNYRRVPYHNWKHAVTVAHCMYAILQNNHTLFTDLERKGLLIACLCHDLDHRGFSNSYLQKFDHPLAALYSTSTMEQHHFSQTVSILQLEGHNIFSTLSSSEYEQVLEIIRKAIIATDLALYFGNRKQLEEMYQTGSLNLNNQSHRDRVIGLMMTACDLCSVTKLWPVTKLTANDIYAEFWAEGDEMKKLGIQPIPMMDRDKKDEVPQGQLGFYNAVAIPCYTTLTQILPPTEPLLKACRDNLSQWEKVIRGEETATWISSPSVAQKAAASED
T4 sequence (O00408 whole entry): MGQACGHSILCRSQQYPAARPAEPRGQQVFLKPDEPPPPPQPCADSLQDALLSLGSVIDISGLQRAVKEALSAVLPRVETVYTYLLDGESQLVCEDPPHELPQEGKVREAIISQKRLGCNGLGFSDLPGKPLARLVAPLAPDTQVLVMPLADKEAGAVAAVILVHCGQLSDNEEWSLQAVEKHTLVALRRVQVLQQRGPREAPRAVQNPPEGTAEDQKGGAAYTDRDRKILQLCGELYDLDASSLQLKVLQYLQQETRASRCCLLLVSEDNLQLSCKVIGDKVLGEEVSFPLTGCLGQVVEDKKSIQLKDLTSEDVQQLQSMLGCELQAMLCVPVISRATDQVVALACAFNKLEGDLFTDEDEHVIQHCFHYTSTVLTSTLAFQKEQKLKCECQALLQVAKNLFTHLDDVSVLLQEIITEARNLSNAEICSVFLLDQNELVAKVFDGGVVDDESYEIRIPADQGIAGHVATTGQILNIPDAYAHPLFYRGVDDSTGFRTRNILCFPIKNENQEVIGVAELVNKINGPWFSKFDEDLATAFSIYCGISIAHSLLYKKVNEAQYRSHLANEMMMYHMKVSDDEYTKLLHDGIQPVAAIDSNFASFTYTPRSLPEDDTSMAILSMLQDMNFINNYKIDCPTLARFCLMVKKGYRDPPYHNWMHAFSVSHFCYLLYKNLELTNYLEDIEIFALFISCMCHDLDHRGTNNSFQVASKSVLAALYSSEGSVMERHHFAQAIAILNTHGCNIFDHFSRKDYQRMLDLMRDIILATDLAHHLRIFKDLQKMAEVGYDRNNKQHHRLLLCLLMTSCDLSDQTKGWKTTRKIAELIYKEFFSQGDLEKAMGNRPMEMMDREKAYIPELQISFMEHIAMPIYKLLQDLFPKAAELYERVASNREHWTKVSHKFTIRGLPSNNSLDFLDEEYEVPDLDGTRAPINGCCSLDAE

receptor occupancy at 10 mg/kg ([3]; po, route PO (oral)) [%]	IC50 [4, 7] [nM]	Emax ([4]; human recombinant PDE2A) [%]	IC50 [4, 8] [nM]	Structure (SMILES)	IC50 ([1]; read-out: pIC50 (converted)) [nM]	Emax [1] [%]	Emax [2, 5] [%]	IC50 [2, 6] [nM]	Emax [4] [%]	IC50 ([4]; hPDE2A pIC50) [nM]	IC50 [4, 9] [nM]	further results
-9	15.1	100	15.1	CCCC[C@H]1CCN(C(=O)c2cc(C)nc(C)c2)C[C@@H]1c1cc(C(F)F)nc2ncnn12 (single isomer, unassigned) [Compound 46]	> 10000	5	86	2240	100	–	–	–
–	–	–	–	Cc1cc([C@@H]2CN(C(=O)c3ccc4ncsc4c3)CC[C@H]2C)n2ncnc2n1 [Compound 2a]	776	98	101	7.24	101	0.589	0.589	receptor occupancy at 10 mg/kg ([3]; sc, route SC (subcutaneous)): 70%
–	–	–	–	Cc1cc([C@H]2CN(C(=O)c3ccc4ncsc4c3)CC[C@@H]2C)n2ncnc2n1 [Compound 2b]	> 10000	31	95	269	100	19.1	19.1	receptor occupancy at 10 mg/kg ([3]; sc, route SC (subcutaneous)): 3%
2	10.5	100	10.5	Cc1cc([C@@H]2CN(C(=O)c3cc4cccnc4nc3C(F)(F)F)CC[C@H]2C)n2ncnc2n1 [Compound 13]	> 10000	38	95	347	100	–	–	–
4	4.68	100	4.68	Cc1cc([C@@H]2CN(C(=O)c3cc(Cl)ncc3C)CC[C@H]2C)n2ncnc2n1 [Compound 18]	6460	65	97	195	100	–	–	–
–	–	–	–	Cc1cc(C(=O)N2CC[C@@H](C)[C@](F)(c3cc(C(F)F)nc4ncnn34)C2)cc(C2CC2)n1 [Compound 24b]	–	–	–	–	–	–	–	hPDE3B Emax [1]: 28; hPDE10A2 Emax ([2]; human clone (h), default): 60; hPDE10A2 pIC50 ([2]; human clone (h), default): 5.13; PDE2 Occupancy at 10 mg/kg ([3]; route SC (subcutaneous)): 0; hPDE2A Emax [4]: 98; hPDE2A pIC50 [4]: 8.19; hPDE2A Emax ([4]; human recombinant PDE2A): 98; hPDE2A pIC50 [4, 10]: 8.19
–	–	–	–	O=C(c1ccc2ncsc2c1)N1[C@H]2CC[C@@H]1[C@H](c1cc(C(F)F)nc3ncnn13)CC2 [Compound 25b]	–	–	–	–	–	–	–	hPDE3B Emax [1]: 37; hPDE10A2 Emax ([2]; human clone (h), default): 28; hPDE10A2 pIC50 ([2]; human clone (h), default): <5; PDE2 Occupancy at 10 mg/kg ([3]; route PO (oral)): −9; hPDE2A Emax [4]: 92; hPDE2A pIC50 [4]: 5.96; hPDE2A Emax ([4]; human recombinant PDE2A): 92; hPDE2A pIC50 [4, 10]: 5.96
34	0.912	100	0.912	Cc1cnc(Cl)cc1C(=O)N1CC[C@@H](C)[C@H](c2cc(C(F)F)nc3ncnn23)C1 [Compound 27]	> 10000	37	88	1100	100	–	–	–
-6	3.47	100	3.47	Cc1cc(C(=O)N2CC[C@@H](C)[C@H](c3cc(C(F)F)nc4ncnn34)C2)c(C)cn1 [Compound 32]	> 10000	31	81	1450	100	–	–	–
-7	14.8	99	14.8	C[C@@H]1CCN(C(=O)c2ccc3ncsc3c2)C[C@@]1(F)c1cc(C(F)F)nc2ncnn12 [Compound 33]	> 10000	25	67	6170	99	–	–	–
–	–	–	9.33	Cc1nc(C(F)(F)F)cc(C(=O)N2CC[C@@H](C)[C@H](c3cc(C(F)F)nc4ncnn34)C2)c1F [Compound 394]	> 10000	27	–	–	99	–	–	Emax [2, 11]: 76%; IC50 [2, 12]: 2240 nM
–	–	–	15.1	Cc1cc(C(=O)N2CC[C@@H](C)[C@H](c3cc(C(F)F)nc4ncnn34)C2)c(F)c(C(F)(F)F)n1 [Compound 396]	> 10000	56	–	–	98	–	–	Emax [2, 11]: 84%; IC50 [2, 12]: 1480 nM
–	–	–	–	Cc1cc(C(=O)N2[C@H]3CC[C@H](c4cc(C(F)F)nc5ncnn45)[C@@H]2CC3)c(F)c(C)n1 [Compound 400]	–	16	–	–	99	22.4	–	IC50 [1]: > 10000 nM; IC50 ([2]; hPDE10A2 or rPDE10A2 pIC50, human clone by default (no (r) mark)): > 10000 nM; Emax [2, 11]: 41%
–	–	–	–	Cc1cc(C(=O)N2CC[C@@H](C)[C@H](c3cc(C(F)F)nc4ncnn34)C2)cc(C)[n+]1[O-] [Compound 402]	> 10000	28	–	–	100	26.3	–	Emax [2, 11]: 87%; IC50 [2, 12]: 1480 nM

Structure (SMILES)	receptor occupancy at 10 mg/kg ([3]; po, route PO (oral)) [%]	IC50 [4, 7] [nM]	Emax ([4]; human recombinant PDE2A) [%]	IC50 [4, 8] [nM]	IC50 ([1]; read-out: pIC50 (converted)) [nM]	Emax [1] [%]	Emax [2, 5] [%]	IC50 [2, 6] [nM]	Emax [4] [%]	IC50 ([4]; hPDE2A pIC50) [nM]	IC50 [4, 9] [nM]	further results
Cc1cc(C(=O)N2CC[C@@H](C)[C@H](c3cc(C)nc4ncnn34)C2)cc(C)n1 [Compound 1a]	37	–	–	–	2090	65	98	12.9	100	0.794	0.794	–
Cc1cc([C@@H]2CN(C(=O)c3cc(C)c(C)cn3)CC[C@H]2C)n2ncnc2n1 [Compound 3a]	0	–	–	–	3470	77	93	269	97	5.75	5.75	–
Cc1cc(C(=O)N2CC[C@@H](C)[C@H](c3cc(C)nc4ncnn34)C2)cc(C(F)(F)F)n1 [Compound 4]	9	–	–	–	5750	70	99	24	100	1.45	1.45	–
Cc1cc([C@@H]2CN(C(=O)c3ccc4occc4c3)CC[C@H]2C)n2ncnc2n1 [Compound 6]	67	–	–	–	676	97	100	17.8	99	1.62	1.62	–
Cc1cc(C(=O)N2C3CCC2[C@@H](c2cc(C(F)F)nc4ncnn24)CC3)cc(C2CC2)n1 (some centres unmarked) [Compound 28]	–	0.955	101	0.955	> 10000	17	95	447	101	–	–	receptor occupancy at 10 mg/kg ([3]; route SC (subcutaneous)): 49%; ED50 ([3]; po, read-out: PDE Occupancy ED50): 25 mg/kg
Cc1cc(C(=O)N2[C@H]3CC[C@@H]2[C@H](c2cc(C(F)F)nc4ncnn24)CC3)cc(C)n1 [Compound 30]	–	3550	77	3550	> 10000	8	32	> 10000	77	–	–	receptor occupancy at 10 mg/kg ([3]; route SC (subcutaneous)): 0%
